Data from article PMC6199744, “Development of Chemical Proteomics for the Folateome and Analysis of the Kinetoplastid Folateome” (ACS Infectious Diseases, 2018).
Where two headings read alike, the source gives them in different places.

Experiments:
Assay type in all cases: binding
[1] = target: T1, HeLa cell extract proteins (Homo sapiens, UniProt Q96T76)
T1 construct: endogenous in cells; host or cells: HeLa cell extract
T1 sequence (Q96T76 1-1030): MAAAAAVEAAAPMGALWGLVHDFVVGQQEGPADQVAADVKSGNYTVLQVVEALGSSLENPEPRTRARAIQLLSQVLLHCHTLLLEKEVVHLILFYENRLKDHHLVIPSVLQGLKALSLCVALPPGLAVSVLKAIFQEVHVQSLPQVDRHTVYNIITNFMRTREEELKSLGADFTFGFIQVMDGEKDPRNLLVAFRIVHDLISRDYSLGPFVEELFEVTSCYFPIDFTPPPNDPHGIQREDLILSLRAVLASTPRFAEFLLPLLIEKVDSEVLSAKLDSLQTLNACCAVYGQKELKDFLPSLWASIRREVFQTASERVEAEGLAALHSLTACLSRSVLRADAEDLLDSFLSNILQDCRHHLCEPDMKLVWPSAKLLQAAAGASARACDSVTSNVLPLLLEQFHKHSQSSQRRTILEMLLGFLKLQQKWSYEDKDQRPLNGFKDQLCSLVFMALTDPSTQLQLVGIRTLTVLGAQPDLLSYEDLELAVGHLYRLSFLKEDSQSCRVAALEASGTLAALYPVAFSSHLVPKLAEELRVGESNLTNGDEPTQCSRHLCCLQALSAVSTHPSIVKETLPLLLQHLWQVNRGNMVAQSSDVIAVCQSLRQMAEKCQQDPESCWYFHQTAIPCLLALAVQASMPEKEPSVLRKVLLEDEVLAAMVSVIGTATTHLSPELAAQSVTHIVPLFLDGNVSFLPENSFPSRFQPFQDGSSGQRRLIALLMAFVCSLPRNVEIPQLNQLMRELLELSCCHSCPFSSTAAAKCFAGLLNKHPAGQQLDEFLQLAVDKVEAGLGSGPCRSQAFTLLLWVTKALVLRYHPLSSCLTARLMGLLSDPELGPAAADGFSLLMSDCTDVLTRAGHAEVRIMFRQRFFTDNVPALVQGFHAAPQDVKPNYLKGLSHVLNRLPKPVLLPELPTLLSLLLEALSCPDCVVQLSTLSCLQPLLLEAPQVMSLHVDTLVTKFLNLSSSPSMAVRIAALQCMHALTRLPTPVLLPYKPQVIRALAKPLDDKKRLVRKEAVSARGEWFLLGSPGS

[2] = target: T2, HeLa cell extract proteins (Homo sapiens, UniProt O43148)
T2 construct: endogenous in cells; host or cells: HeLa cell extract

[3] = target: T3, HeLa cell extract proteins (Homo sapiens, UniProt P49327)
T3 construct: endogenous in cells; host or cells: HeLa cell extract

[4] = target: T4, HeLa cell extract proteins (Homo sapiens, UniProt P09497)
T4 construct: endogenous in cells; host or cells: HeLa cell extract
T4 sequence (P09497 1-229): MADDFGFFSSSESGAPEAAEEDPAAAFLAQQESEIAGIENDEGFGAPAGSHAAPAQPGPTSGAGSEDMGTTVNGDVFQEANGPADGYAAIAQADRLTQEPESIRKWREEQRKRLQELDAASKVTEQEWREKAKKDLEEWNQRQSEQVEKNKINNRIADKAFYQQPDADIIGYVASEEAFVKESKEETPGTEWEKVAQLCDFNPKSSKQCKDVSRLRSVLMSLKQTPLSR

[5] = target: T5, HeLa cell extract proteins (Homo sapiens, UniProt Q02218)
T5 construct: endogenous in cells; host or cells: HeLa cell extract
T5 sequence (Q02218 41-1023): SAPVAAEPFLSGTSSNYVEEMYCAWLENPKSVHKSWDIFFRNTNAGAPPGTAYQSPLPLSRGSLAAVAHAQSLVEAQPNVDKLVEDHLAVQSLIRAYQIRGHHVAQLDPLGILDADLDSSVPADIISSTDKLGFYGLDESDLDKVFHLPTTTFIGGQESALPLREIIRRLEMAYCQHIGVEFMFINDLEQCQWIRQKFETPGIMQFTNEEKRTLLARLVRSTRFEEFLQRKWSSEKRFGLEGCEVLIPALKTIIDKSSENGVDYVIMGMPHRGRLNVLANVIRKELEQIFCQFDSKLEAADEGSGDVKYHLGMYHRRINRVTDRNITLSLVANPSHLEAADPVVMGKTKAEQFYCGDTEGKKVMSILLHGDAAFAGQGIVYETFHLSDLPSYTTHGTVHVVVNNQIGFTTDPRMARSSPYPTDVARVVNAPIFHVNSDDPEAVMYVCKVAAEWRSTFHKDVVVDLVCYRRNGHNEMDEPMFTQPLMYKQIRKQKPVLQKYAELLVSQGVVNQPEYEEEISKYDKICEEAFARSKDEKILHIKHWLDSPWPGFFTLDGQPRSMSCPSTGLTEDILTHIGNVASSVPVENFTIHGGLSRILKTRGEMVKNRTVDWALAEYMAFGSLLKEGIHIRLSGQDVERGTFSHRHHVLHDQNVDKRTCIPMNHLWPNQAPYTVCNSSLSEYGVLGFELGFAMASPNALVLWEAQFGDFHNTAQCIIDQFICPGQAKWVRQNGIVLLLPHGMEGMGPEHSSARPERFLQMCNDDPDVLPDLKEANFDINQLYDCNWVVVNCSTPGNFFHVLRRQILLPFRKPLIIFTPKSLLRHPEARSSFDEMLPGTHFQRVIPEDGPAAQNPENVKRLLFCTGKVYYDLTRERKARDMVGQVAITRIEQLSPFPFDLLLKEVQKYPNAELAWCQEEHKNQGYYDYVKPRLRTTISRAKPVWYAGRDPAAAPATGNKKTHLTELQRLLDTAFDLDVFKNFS

[6] = target: T6, HeLa cell extract proteins (Homo sapiens, UniProt Q08380)
T6 construct: endogenous in cells; host or cells: HeLa cell extract
T6 sequence (Q08380 19-585): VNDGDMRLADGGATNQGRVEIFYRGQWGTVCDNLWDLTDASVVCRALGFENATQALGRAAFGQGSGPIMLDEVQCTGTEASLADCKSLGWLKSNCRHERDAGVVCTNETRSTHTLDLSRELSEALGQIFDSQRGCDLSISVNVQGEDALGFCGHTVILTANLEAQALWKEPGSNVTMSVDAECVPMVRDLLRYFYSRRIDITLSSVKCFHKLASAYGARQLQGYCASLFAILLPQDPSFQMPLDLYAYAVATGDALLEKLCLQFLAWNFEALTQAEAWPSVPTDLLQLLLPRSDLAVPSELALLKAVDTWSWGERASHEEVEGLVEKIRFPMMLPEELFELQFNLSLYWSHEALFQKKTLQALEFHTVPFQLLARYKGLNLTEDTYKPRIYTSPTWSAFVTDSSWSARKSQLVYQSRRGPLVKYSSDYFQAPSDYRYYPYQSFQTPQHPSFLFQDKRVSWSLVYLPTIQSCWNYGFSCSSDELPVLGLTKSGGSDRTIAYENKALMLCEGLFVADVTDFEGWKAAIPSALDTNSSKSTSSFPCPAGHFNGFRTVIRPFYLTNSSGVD

[7] = HeLa, protein LGALS3BP (GALECTIN-3-BINDING PROTEIN PRECURSOR)

T2 sequence (O43148 whole entry): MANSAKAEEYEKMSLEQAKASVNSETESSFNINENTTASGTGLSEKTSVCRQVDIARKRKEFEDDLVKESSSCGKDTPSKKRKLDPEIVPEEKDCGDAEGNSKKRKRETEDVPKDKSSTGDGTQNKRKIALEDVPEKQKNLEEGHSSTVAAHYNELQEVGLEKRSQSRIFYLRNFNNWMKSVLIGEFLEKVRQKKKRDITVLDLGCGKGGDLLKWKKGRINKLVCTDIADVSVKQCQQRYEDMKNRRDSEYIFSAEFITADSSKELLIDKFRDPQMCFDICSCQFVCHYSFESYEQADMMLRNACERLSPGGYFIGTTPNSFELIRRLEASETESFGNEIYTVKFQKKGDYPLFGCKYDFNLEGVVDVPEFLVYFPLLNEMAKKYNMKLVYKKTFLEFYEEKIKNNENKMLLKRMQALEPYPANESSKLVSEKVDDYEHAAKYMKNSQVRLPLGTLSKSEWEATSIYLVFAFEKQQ
T3 sequence (P49327 whole entry): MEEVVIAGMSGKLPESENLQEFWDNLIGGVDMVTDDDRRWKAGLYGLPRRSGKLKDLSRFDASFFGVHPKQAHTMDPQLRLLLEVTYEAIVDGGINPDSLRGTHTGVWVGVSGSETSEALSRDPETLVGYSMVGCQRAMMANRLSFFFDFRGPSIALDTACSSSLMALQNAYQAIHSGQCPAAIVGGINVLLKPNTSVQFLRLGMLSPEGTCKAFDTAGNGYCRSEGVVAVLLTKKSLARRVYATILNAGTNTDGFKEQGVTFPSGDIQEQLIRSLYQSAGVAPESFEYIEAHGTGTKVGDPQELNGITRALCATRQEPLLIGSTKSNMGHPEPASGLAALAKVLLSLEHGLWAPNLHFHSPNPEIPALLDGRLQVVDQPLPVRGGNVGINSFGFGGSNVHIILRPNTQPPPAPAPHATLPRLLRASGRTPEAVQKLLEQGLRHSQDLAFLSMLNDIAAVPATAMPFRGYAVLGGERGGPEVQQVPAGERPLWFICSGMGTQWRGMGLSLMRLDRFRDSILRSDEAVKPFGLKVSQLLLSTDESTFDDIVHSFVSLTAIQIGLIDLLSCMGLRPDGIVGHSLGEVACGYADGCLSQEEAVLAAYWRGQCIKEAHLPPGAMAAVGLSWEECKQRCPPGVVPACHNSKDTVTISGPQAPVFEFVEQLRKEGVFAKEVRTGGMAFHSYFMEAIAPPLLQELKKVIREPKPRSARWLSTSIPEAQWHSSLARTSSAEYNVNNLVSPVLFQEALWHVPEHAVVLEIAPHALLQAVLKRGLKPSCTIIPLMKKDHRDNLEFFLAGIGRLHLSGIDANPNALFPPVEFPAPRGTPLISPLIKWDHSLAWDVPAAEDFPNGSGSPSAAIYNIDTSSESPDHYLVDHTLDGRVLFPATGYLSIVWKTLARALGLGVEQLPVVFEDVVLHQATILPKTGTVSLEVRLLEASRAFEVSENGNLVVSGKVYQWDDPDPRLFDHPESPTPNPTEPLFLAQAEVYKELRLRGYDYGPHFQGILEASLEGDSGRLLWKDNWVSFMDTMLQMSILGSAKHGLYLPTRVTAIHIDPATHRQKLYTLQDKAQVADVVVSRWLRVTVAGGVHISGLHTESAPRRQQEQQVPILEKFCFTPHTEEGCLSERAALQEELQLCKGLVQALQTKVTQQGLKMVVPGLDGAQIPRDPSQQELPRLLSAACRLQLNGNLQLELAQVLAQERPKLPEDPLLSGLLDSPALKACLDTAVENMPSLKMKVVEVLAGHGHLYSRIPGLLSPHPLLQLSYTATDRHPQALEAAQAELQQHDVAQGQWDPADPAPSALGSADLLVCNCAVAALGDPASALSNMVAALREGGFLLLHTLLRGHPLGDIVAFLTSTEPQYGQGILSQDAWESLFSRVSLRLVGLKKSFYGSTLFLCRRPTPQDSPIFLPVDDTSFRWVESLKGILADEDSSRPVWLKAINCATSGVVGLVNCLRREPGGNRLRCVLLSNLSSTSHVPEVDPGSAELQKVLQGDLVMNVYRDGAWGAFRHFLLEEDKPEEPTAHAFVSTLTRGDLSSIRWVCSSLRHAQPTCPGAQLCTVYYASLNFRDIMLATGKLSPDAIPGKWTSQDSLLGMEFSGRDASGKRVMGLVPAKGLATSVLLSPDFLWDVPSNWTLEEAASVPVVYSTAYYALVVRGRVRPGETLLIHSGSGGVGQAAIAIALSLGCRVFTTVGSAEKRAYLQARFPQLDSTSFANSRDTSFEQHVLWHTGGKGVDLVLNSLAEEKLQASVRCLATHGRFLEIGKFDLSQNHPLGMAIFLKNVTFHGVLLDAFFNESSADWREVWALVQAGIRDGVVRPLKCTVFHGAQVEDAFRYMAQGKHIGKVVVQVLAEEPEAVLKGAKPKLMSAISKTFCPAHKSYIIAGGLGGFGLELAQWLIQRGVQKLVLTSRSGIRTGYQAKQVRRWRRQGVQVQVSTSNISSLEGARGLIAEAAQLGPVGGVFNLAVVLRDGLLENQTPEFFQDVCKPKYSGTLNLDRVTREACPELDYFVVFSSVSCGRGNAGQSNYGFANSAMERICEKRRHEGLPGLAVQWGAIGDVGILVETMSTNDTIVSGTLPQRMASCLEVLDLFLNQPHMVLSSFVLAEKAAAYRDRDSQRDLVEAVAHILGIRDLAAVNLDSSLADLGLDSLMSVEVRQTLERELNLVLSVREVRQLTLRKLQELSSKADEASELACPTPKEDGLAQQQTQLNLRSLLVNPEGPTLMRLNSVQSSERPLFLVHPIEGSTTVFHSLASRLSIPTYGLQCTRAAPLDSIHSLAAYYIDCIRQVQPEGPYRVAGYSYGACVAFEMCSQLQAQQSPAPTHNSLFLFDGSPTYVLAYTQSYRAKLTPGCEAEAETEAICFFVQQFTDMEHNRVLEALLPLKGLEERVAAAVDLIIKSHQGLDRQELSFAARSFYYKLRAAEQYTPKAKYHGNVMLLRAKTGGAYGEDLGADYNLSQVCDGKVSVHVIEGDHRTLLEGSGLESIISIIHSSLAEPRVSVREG

With `Nc1nc2cccc(-c3ccccc3)c2n1Cc1ccc(Cl)c(Cl)c1` [compound 3] the “fold changes relative to vehicle control” value ([1]; captured protein MMS19, HeLa) was 1.02, the “fold changes relative to vehicle control” value ([2]; HeLa, protein RNMT) was 0.93 and the “fold changes relative to vehicle control” value ([3]; protein FASN, HeLa) was 1.17. For the same molecule, the “fold changes relative to vehicle control” value ([4]; HeLa, protein CLTB) was 0.94, the “fold changes relative to vehicle control” value ([5]; protein OGDH, HeLa) was 1.03 and the “fold changes relative to vehicle control” value ([6]; protein LGALS3BP, HeLa) was 1.07.

With `Nc1nc2[nH]cc(CCc3ccc(C(=O)N[C@@H](CCC(=O)O)C(=O)O)cc3)c2c(=O)[nH]1` [PTX, pemetrexed] the “fold changes relative to vehicle control” value [1] was 0.82, the “fold changes relative to vehicle control” value [2] was 0.83 and the “fold changes relative to vehicle control” value [3] was 1.09. The “fold changes relative to vehicle control” value [4] was 1.2, the “fold changes relative to vehicle control” value [5] was 0.9 and the “fold changes relative to vehicle control” value [6] was 1.13.

In the case of `Nc1nc2c(c(=O)[nH]1)N(C=O)C(CNc1ccc(C(=O)N[C@@H](CCC(=O)O)C(=O)O)cc1)CN2` (stereo partly drawn) [LEU, leucovorin], the “fold changes relative to vehicle control” value ([1]; HeLa, protein MMS19) is reported as 0.87, the “fold changes relative to vehicle control” value ([2]; HeLa, captured protein RNMT) is reported as 0.88 and the “fold changes relative to vehicle control” value ([3]; HeLa, captured protein FASN) is reported as 1.13. For the same molecule, the “fold changes relative to vehicle control” value ([4]; HeLa, captured protein CLTB) was 0.99, the “fold changes relative to vehicle control” value ([5]; HeLa, captured protein OGDH) was 1.13 and the “fold changes relative to vehicle control” value [6, 7] was 1.08.

With `CCCCCCOc1cccc(Cc2cnc(N)nc2N)c1` [compound 2] the “fold changes relative to vehicle control” value ([1]; captured protein MMS19, HeLa) was 0.94, the “fold changes relative to vehicle control” value ([2]; HeLa, protein RNMT) was 0.97 and the “fold changes relative to vehicle control” value ([3]; protein FASN, HeLa) was 1.25. The “fold changes relative to vehicle control” value ([4]; HeLa, protein CLTB) was 1.18, the “fold changes relative to vehicle control” value ([5]; protein OGDH, HeLa) was 1.26 and the “fold changes relative to vehicle control” value ([6]; protein LGALS3BP, HeLa) was 0.95.

In the case of `NCCOCCOCC(=O)Nc1nc2ncc(CNc3ccc(C(=O)NC(CCC(=O)O)C(=O)O)cc3)nc2c(=O)[nH]1` (stereo not drawn) [compound 6], the “fold changes relative to vehicle control” value ([1]; HeLa, protein MMS19) is reported as 0.97, the “fold changes relative to vehicle control” value ([2]; HeLa, captured protein RNMT) is reported as 0.79 and the “fold changes relative to vehicle control” value ([3]; HeLa, captured protein FASN) is reported as 1.2. For the same molecule, the “fold changes relative to vehicle control” value ([4]; HeLa, captured protein CLTB) was 1.23, the “fold changes relative to vehicle control” value ([5]; HeLa, captured protein OGDH) was 1.02 and the “fold changes relative to vehicle control” value [6, 7] was 1.02.

For `CCCCCCOc1ccc(Cc2cnc(N)nc2N)cc1` [compound 1], the “fold changes relative to vehicle control” value ([1]; captured protein MMS19, HeLa) was 0.79, the “fold changes relative to vehicle control” value ([2]; HeLa, protein RNMT) was 0.92 and the “fold changes relative to vehicle control” value ([3]; protein FASN, HeLa) was 1.07. For the same molecule, the “fold changes relative to vehicle control” value ([4]; HeLa, protein CLTB) was 0.82, the “fold changes relative to vehicle control” value ([5]; protein OGDH, HeLa) was 1.05 and the “fold changes relative to vehicle control” value ([6]; protein LGALS3BP, HeLa) was 0.97.

`NCCCNc1ccc(C(=O)NC(CCC(=O)O)C(=O)O)cc1` (stereo not drawn) [compound 7] was tested, and the “fold changes relative to vehicle control” value ([1]; HeLa, protein MMS19) was 1.02, the “fold changes relative to vehicle control” value ([2]; HeLa, captured protein RNMT) was 1.02 and the “fold changes relative to vehicle control” value ([3]; HeLa, captured protein FASN) was 1.2. For the same molecule, the “fold changes relative to vehicle control” value ([4]; HeLa, captured protein CLTB) was 1.14, the “fold changes relative to vehicle control” value ([5]; HeLa, captured protein OGDH) was 1.04 and the “fold changes relative to vehicle control” value [6, 7] was 1.09.
